In US20250145588A1, “CRYSTAL FORM OF TAVAPADON, AND PREPARATION METHOD THEREFOR AND USE THEREOF” (CRYSTAL PHARMACEUTICAL (SUZHOU) CO., LTD., priority 2022, published 2025):
Entries after “also recorded” stand apart in the source; their conditions may differ.

Experiments:
Format in all cases: physicochemical
[1] = Storage stability of solid forms (crystalline form by XRPD, chemical purity by HPLC); settings: for Purity after storage: HPLC
Experimental: XRPD patterns in the present disclosure were acquired by a Bruker X-ray powder diffractometer. The parameters of the X-ray powder diffraction method of the present disclosure are as follows: • X-Ray source: Cu, Kα • Kα1 (Å): 1.54060; Kα2 (Å): 1.54439 • Kα2/Kα1 intensity ratio: 0.50
A certain amount of the prior art solid obtained in Example 4 was packaged with sealed container (with desiccant inside), and stored under 40° C./75% RH. The solid form before and after storage was confirmed by XRPD.
A certain amount of Form CSI was packaged with corresponding package conditions, and then stored under 25° C./60% RH, 40° C./75% RH and 60° C./75% RH. Crystalline form and chemical purity were checked by XRPD and HPLC, respectively. Form CSI kept stable for at least 6 months when stored at 25° C./60% RH open and sealed (with desiccants) package, 40° C./75% RH open and sealed (with desiccants) package, and 60° C./75% RH sealed (with desiccants) package.
A certain amount of Form CSII sample was packaged with corresponding package conditions, and then stored at 25° C./60% RH and 40° C./75% RH. Crystalline form was checked by XRPD. Form CSII kept stable for at least 1 month for both open and sealed (with desiccants) package conditions at 25° C./60% RH and 40° C./75% RH.

[2] = Hygroscopicity and humidity stability by DVS (0% RH-95% RH-0% RH cycle at 25° C., XRPD before and after); settings: for Hygroscopicity (in words) / Weight gain (water uptake) at 80% RH: DVS; for Form change after DVS test (humidity stability): one cycle 0% RH-95% RH-0% RH, XRPD
Experimental: DVS data in the present disclosure were measured via an SMS (Surface Measurement Systems Ltd.) intrinsic DVS instrument. The instrument control software is DVS-Intrinsic control software. Typical Parameters for DVS test are as follows: • Temperature: 25° C. • Gas and flow rate: N2, 200 mL/minRH range: 0% RH to 95% RH
The hygroscopicity of Form CSI was determined by a DVS instrument with a certain amount of sample. The mass at each relative humidity was recorded during a cycle of 0% RH-95% RH-0% RH at 25° C., and XRPD was collected before and after DVS test.
The hygroscopicity of Form CSII was determined by DVS instrument with a certain amount of sample. The mass at each relative humidity was recorded during the cycle of 0% RH-95% RH-0% RH at 25° C., and XRPD was tested before and after DVS.

[3] = Physical stability upon mechanical force (ball-milling, XRPD before and after grinding); settings: 500 rpm, 5 minutes
Experimental: Form CSI was ground using a ball-milling at a vibration speed of 500 rpm for 5 minutes.
Form CSII was ground using a ball-milling at a vibration speed of 500 rpm for 5 minutes.

With Cc1cc(Oc2ncccc2C(F)(F)F)ccc1-c1c(C)c(=O)[nH]c(=O)n1C (single isomer, unassigned) [Form CSII] the “Solid form after storage” value ([1]; 25° C./60% RH, sealed (with desiccants), 1 month, XRPD) was “Form CSII”, the “Solid form after storage” value ([1]; 40° C./75% RH, sealed (with desiccants), 1 month, XRPD) was “remains unchanged; also recorded: Form CSII” and the “Time kept stable on storage” value ([1]; open and sealed (with desiccants) package at 25° C./60% RH and 40° C./75% RH) was “at least 1 month”. The “Hygroscopicity (in words)” value [2] was “almost non hygroscopic”, the “Weight gain (water uptake) at 80% RH” value [2] was 0.19% and the “Form change after DVS test (humidity stability)” value [2] was “No form change; also recorded: remains unchanged”. For the same compound, the “Form change after grinding” value [3] was “no form change; also recorded: doesn't change after grinding”.
For Cc1cc(Oc2ncccc2C(F)(F)F)ccc1-c1c(C)c(=O)[nH]c(=O)n1C [prior art solid, reference compound], the “Solid form change after storage” value ([1]; 40° C./75% RH, sealed container with desiccant, 10 days, XRPD) was “undergoes crystal transformation; also recorded: undergoes crystalline transformation”.
In the case of Cc1cc(Oc2ncccc2C(F)(F)F)ccc1-c1c(C)c(=O)[nH]c(=O)n1C (single isomer, unassigned) [Form CSI], the “Time kept stable on storage” value ([1]; 25° C./60% RH open and sealed (with desiccants), 40° C./75% RH open and sealed (with desiccants), 60° C./75% RH sealed (with desiccants)) is reported as “at least 6 months”, the Purity after storage ([1]; 25° C./60% RH, open, 6 months) is reported as 99.85% and the “Solid form after storage” value ([1]; 25° C./60% RH, open, 6 months, XRPD) is reported as “Form CSI”. The Purity after storage ([1]; 25° C./60% RH, sealed (with desiccants), 6 months) was 99.85%, the “Solid form after storage” value ([1]; 25° C./60% RH, sealed (with desiccants), 6 months, XRPD) was “Form CSI” and the “Time remaining unchanged on storage” value ([1]; 40° C./75% RH) was “at least 6 months”. The Purity after storage ([1]; 40° C./75% RH, open, 6 months) was 99.85%, the “Solid form after storage” value ([1]; 40° C./75% RH, open, 6 months, XRPD) was “Form CSI” and the Purity after storage ([1]; 40° C./75% RH, sealed (with desiccants), 6 months) was 99.85%. For the same compound, the “Solid form after storage” value ([1]; 40° C./75% RH, sealed (with desiccants), 6 months, XRPD) was “Form CSI”, the Purity after storage ([1]; 60° C./75% RH, sealed (with desiccants), 6 months) was 99.85% and the “Solid form after storage” value ([1]; 60° C./75% RH, sealed (with desiccants), 6 months, XRPD) was “Form CSI”. For the same compound, the “Time remaining unchanged on storage” value ([1]; 60° C./75% RH, sealed package) was “at least 6 months”, the “Hygroscopicity (in words)” value [2] was “almost non hygroscopic” and the “Weight gain (water uptake) at 80% RH” value [2] was 0.05%. The “Form change after DVS test (humidity stability)” value [2] was “No form change; also recorded: remains unchanged” and the “Form change after grinding” value [3] was “no form change; also recorded: doesn't change after grinding”.
